According to US7183267B2, “β-lactamase inhibitors and methods of use thereof” (priority 2003, dated 2007):

Key:
AmpC β-lactamase [1] = biological target: T1, AmpC β-lactamase (Escherichia coli, UniProt P00811); assay: AmpC β-lactamase competitive inhibition assay (nitrocefin hydrolysis); assay type: biochemical
T1 construct: made in house; host or cells: E. coli BL21 (DE3)
Procedure: The gene for AmpC β-lactamase (accession number P00811) was obtained from Escherichia coli K12 strain W3110 (American Type Culture Collection, Rockville Md.). E. coli was grown and plasmid (F-lacIq lacPL8 ampC::lambdacI+) was isolated via Qiagen (Valencia, Calif.) mini prep. The gene for AmpC was amplified in two pieces via polymerase chain reaction, ligated and purified by agarose gel electrophoresis. The ligated gene was inserted into a pET200 vector via a TOPO reaction (Invitrogen, Carlsbad, Calif.).
BL21 (DE3) (Invitrogen) cells were transformed by heat-shock with the prepared plasmid. These cells were grown to an OD600 of 0.8 at 37° C. Isopropylthiogalactoside (IPTG) was added to 1 mM, incubation temperature decreased to 25° C. and the cells were grown for an additional 18 hours. After 18 hours, the E. coli was pelleted by centrifugation, and discarded. The growth media was concentrated and dialyzed versus 100 mM Tris, pH 7.0. This solution was run through an equilibrated Q-resin column, and washed with excess 100 mM Tris, pH 7.0.
The competitive inhibition of β-lactamase was determined spectrophotometrically using a Varian (Walnut Creek, Calif.) Cary 100 UV-Visible spectrophotometer. β-lactamase activity was followed by measuring the hydrolysis of nitrocefin, [3-(2,4-dinitrostyryl)-(6R, 7R)-7-(2-thienylacetamido)-ceph-3-em-4-carboxylic acid, E-isomer], (Calbiochem, San Diego, Calif.) at 486 nm. Inhibition assays were performed at 25° C. in 50 mM sodium phosphate, 5% DMSO, pH 7.0. […] Penicillin G (Sigma, St. Louis, Mo.) was also used as a substrate to determine KM and kcat.
Inhibitor was added to protein and incubated for ten minutes before the addition of substrate. Inhibition constants were determined by measuring the loss of P-lactamase activity with increasing inhibitor concentrations and fitting the data to standard equations for competitive inhibition.

β-lactamase M69I = β-lactamase M69I (Escherichia coli, UniProt P62593, M67I); assay: Isothermal titration calorimetry, binding enthalpy, M69I mutant
Procedure: (§1) The binding of the compounds of the present invention to β-lactamase was also measured by isothermal titration calorimetry.
(§2) These experiments, in combination with the inhibition assays, indicate that the compounds identified in this disclosure bind to the wild type as well as drug resistant beta lactamases with favorable binding enthalpies. This is a very important characteristic from the point of view of further optimization since it facilitates the achievement of extremely high affinities and low susceptibilities to drug resistant mutations and naturally occurring polymorphisms.
(§3) Isothermal titration calorimetry was performed on a high-precision VP-ITC titration calorimeter (Microcal Inc., Northampton, Mass.). β-Lactamase solutions were titrated with inhibitors in 50 mM sodium phosphate, 2% DMSO, pH 7.0, with β-lactamase concentrations ranging from 15 to 25 μM and inhibitor concentrations ranging from 300 to 1000 μM. The heat evolved from each injection was obtained by integrating the calorimetric signal. Heat of binding was obtained as the difference between the heat of reaction and the heat of inhibitor dilution. Data were analyzed using Origin 7.0 (OriginLab Corporation, Northampton, Mass.).

β-lactamase E104K = β-lactamase E104K (Escherichia coli, UniProt P62593, E102K); assay: Isothermal titration calorimetry, binding enthalpy, E104K mutant
Procedure: as §1, §2, §3

TEM-1 β-lactamase = TEM-1 β-lactamase (Escherichia coli, UniProt P62593); assay: TEM-1 β-lactamase inhibition assay (nitrocefin hydrolysis, 486 nm); assay type: biochemical; conditions: Ki, 25° C., 50 mM sodium phosphate, 5% DMSO, pH 7.0; enzyme 5 nM, nitrocefin 167 μM
Summary of the method: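 TEM-1 activity followed by nitrocefin hydrolysis at 486 nm, 25 °C, 50 mM sodium phosphate pH 7.0, 5% DMSO; inhibitor preincubated with enzyme 10 min before substrate. Ki obtained from rates at increasing inhibitor concentrations fitted to competitive-inhibition equations; penicillin G also used as substrate for KM and kcat.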

β-lactamase R244S = β-lactamase R244S (Escherichia coli, UniProt P62593, R241S); assay: Isothermal titration calorimetry, binding enthalpy, R244S mutant
Procedure: as §1, §2, §3

β-lactamase wt = β-lactamase wt (Escherichia coli, UniProt P62593); assay: Isothermal titration calorimetry, binding enthalpy, wild type
Procedure: as §1, §2, §3

AmpC β-lactamase [2] = biological target: T1, AmpC β-lactamase; conditions: binding to AmpC; ITC
Procedure: as §3
Isothermal titration calorimetry was undertaken to determine the thermodynamic characteristics of binding to AmpC β-lactamase.

β-lactamase mutant E104K = β-lactamase mutant E104K (Escherichia coli, UniProt P62593, E102K); assay type: biochemical; conditions: number higher than 1 reflects a loss of potency against mutant
β-lactamase mutant M69I = β-lactamase mutant M69I (Escherichia coli, UniProt P62593, M67I); assay type: biochemical; conditions: number higher than 1 reflects a loss of potency against mutant
β-lactamase mutant R244S = β-lactamase mutant R244S (Escherichia coli, UniProt P62593, R241S); assay type: biochemical; conditions: number higher than 1 reflects a loss of potency against mutant

T1 sequence (P00811 20-377): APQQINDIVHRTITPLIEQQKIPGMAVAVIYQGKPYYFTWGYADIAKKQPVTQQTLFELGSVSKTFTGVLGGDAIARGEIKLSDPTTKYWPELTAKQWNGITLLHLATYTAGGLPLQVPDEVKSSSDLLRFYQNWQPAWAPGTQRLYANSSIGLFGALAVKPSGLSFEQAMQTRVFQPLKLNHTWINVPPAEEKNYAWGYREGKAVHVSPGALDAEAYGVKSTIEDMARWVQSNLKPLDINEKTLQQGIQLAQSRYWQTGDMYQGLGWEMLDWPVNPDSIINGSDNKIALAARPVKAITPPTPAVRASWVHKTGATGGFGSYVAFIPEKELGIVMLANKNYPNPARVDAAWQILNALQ

## O=C(OCc1ccccc1)c1cc(B(O)O)cc([N+](=O)[O-])c1 [Compound F1201]
AmpC β-lactamase [1]
  Ki: 4.45 µM
β-lactamase M69I
  ΔH M69I: -2.4 kcal/mol
β-lactamase E104K
  ΔH E104K: -3.5 kcal/mol
TEM-1 β-lactamase
  Ki: 27 µM
β-lactamase R244S
  ΔH R244S: -6.5 kcal/mol
β-lactamase wt
  ΔH wt: -3.2 kcal/mol
AmpC β-lactamase [2]
  ΔG: -6.566 kcal/mol
  ΔH: -5.084 kcal/mol
  −TΔS: -1.482 kcal/mol
β-lactamase mutant E104K
  Loss of potency: ratio of the inhibitory constant between mutant and wild type (Potencywt/Potencymutant), E104K: 0.48
β-lactamase mutant M69I
  Loss of potency: ratio of the inhibitory constant between mutant and wild type (Potencywt/Potencymutant), M69I: 0.52
β-lactamase mutant R244S
  Loss of potency: ratio of the inhibitory constant between mutant and wild type (Potencywt/Potencymutant), R244S: 0.86
